# Experimental data reported in paper PMC4118827, “Mapping the conformational space accessible to catechol-O-methyltransferase” (Acta Crystallographica Section D: Biological Crystallography, 2014).
# Changes are numbered by the printed parent chain.
# Legend:
# [1] = target: T1, humanized rat COMT (hrCOMT), catechol-O-methyltransferase (Rattus norvegicus, UniProt P22734, M134I/Y138C); experiment: co-crystal structure ([…]) at […] Å; IC50 from activity-based high-throughput screen; type: biochemical
# T1 sequence (P22734 44-264 M134I/Y138C): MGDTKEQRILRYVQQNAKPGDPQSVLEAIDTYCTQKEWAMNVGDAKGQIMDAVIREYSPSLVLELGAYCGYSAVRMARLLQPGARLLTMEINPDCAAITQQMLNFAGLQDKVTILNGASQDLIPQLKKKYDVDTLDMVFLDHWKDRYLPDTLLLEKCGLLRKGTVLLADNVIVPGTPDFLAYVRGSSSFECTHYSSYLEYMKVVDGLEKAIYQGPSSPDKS
# [2] = target: T2, rat COMT (rCOMT), catechol-O-methyltransferase (Rattus norvegicus, UniProt P22734); experiment: co-crystal structures ([…]), semi-holo, and ([…]), with tolcapone and Mg2+; type: binding
# T2 construct: soluble N-terminally truncated form, lacks the N-terminal 43 residues
# T2 sequence (P22734 44-264): T1 sequence (P22734 44-264 M134I/Y138C) with I91M, C95Y
SMILES,IC50 [1] [µM],"co-crystal structures (7), semi-holo, and (8), with tolcapone and Mg2+ [2]"
N=C(N)c1ccc(NC(=O)Nc2cccc(CN)c2)cc1 [4-[3-(3-aminomethylphenyl)-ureido]-benzamidine],4.4,
Nc1ncnc2c1ncn2[C@@H]1O[C@H](C[C@@H](N)CC[C@H](N)C(=O)O)[C@@H](O)[C@H]1O [sinefungin],,Co-crystal structure with the SAM analogue sinefungin. Semi-holo form.
